Counter-ions that a name gives are not always drawn. Like-named read-outs stand apart in the source and are kept apart here.
Columns and labels:
[1] = Acute intravenous toxicity in mice; type: in vivo, mouse; details: mouse, in vivo, iv, mice male and female, read-out: LD50 (95% Confidence Limits)
mice (male and female) = assay: Acute intravenous toxicity in mice; type: in vivo, mouse; details: mice, administered within twenty minutes following preparation
[2] = test system: spontaneously hypertensive (SH) rats; assay: Antihypertensive effect (blood pressure and heart rate) in spontaneously hypertensive rats; type: in vivo, rat
Procedure: The screening is conducted as follows:
Male spontaneously hypertensive (SH) rats are trained to be restrained in a wire mesh cylinder in a warming box, at least two training cycles being conducted before testing. The rats are warmed for about 1/2 hour period to blood pressure measurement, the warming box being maintained at a constant temperature of 36° C.
An occluding cuff attached to the programed sphymomanometer is placed near the base of the tail of each rat and the pressure in the cuff is increased automatically from 0 to 250 milimeters of mercury (mm Hg) at a rate of 10 mm Hg per second. The total time for each cycle of inflation and deflation of the cuff is 50 seconds and the interval between cycles is one minute.
A photocell is placed distal to the cuff to record the pulses due to forward motion of blood flow with each heart beat. As the pressure in the cuff increases, the pulse disappears completely at a point where cuff pressure equals or exceeds the arterial blood pressure and it reappears during deflation at approximately the same pressure. Five interference free signals for deflation are recorded for each rat. Rats with a blood pressure of 180 mm Hg or more during the control period are used in the study. Blood pressure and heart rate readings are recorded on a model VII Grass polygraph at intervals of 1, 3, 5 and 24 hours after administration of the drug.

physchem = details: water
Procedure: The water in the filtrate was removed in vacuo and the residue weighed and found to be 16.7 mg.

Compound: COc1cc2nc(N3CCN(C(=O)C4CCCO4)CC3)nc(N)c2cc1OC (stereo not drawn) [2[4-(Tetrahydro-2-Furoyl)Piperazinyl]-4-Amino-6,7-Dimethoxyquinazoline Hydrochloride]
- LD50 ([1]; injected 24 hours after formulation (B)): 253 mg/kg
- LD50 ([1]; injected immediately after formulation (A)): 259 mg/kg
- toxicity in comparison to the compound of Formula I (mice (male and female)): significantly lower toxicity than the compound of Formula I
- duration of the effect (decrease in blood pressure) ([2]; intraperitoneal 30 mg./kg.): greater than 24 hours
- fall in blood pressure ([2]; oral, 3 and 10 mg./kg., up to approximately): ≤ 40%
- solubility (physchem): 590 mg/mL

From US4112097A, “Antihypertensive agents” (Abbott Laboratories, priority 1977, dated 1978)
